# Test results: ChEMBL document CHEMBL3217581, “Synthesis and selective inhibition of human monoamine oxidases of a large scaffold of (4,5-substituted-thiazol-2-yl)hydrazones” (Medchemcomm, 2010); call rule not given here
# Key:
# [1] = target: T1, Amine oxidase [flavin-containing] B (Homo sapiens, UniProt P27338); experiment: biochemical; type: cell-based, BTI-TN-5B1-4
# T1 sequence (P27338 whole entry): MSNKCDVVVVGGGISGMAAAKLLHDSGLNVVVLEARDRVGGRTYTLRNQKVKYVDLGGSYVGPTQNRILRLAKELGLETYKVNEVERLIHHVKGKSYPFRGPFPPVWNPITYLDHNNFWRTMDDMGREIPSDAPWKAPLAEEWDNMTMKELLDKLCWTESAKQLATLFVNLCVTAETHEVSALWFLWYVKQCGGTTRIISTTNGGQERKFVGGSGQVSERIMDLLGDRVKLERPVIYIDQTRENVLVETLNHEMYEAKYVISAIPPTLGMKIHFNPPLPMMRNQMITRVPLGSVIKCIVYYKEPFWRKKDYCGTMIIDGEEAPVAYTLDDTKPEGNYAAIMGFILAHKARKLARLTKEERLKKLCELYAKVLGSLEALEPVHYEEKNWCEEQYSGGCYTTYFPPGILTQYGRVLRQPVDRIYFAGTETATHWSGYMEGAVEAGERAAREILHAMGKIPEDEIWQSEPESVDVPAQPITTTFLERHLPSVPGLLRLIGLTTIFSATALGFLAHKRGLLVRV
# Description: Inhibition of human MAO-B expressed in baculovirus infected BTI-TN-5B1-4 insect cells using p-tyramine as substrate assessed as hydrogen peroxide production by fluorimetric method
# Homo sapiens = species: Homo sapiens; experiment: Selectivity index, ratio of IC50 for human MAO-B to IC50 for human MAO-A
# [2] = target: T2, Amine oxidase [flavin-containing] A (Homo sapiens, UniProt P21397); experiment: Inhibition of human MAO-A expressed in baculovirus infected BTI-TN-5B1-4 insect cells using p-tyramine as substrate assessed as hydrogen peroxide production by fluorimetric method
# T2 sequence (P21397 whole entry): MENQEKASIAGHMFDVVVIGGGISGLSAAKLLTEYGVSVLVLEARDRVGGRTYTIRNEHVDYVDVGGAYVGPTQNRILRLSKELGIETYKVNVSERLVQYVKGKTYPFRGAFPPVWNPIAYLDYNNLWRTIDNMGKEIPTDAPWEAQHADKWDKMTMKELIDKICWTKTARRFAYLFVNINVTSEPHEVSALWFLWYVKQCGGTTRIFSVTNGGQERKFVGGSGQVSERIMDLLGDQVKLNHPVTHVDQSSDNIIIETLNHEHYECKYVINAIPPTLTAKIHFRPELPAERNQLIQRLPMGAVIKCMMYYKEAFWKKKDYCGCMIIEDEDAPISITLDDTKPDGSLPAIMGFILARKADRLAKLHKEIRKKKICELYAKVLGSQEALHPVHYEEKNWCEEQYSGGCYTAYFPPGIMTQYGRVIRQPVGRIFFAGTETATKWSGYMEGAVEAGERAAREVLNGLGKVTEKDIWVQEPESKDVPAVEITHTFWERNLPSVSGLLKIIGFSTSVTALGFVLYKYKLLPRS
# [3] = target: T2, Amine oxidase [flavin-containing] A; experiment: Inhibition of human MAO-A expressed in baculovirus infected BTI-TN-5B1-4 insect cells using p-tyramine as substrate assessed as hydrogen peroxide production at 100 uM by fluorimetric method; settings: BTI-TN-5B1-4, human
# [4] = target: T1, Amine oxidase [flavin-containing] B; experiment: Inhibition of human MAO-B expressed in baculovirus infected BTI-TN-5B1-4 insect cells using p-tyramine as substrate assessed as hydrogen peroxide production at 100 uM by fluorimetric method; settings: BTI-TN-5B1-4, human
# [5] = target: T1, Amine oxidase [flavin-containing] B; experiment: Inhibition of human MAO-B expressed in baculovirus infected BTI-TN-5B1-4 insect cells using p-tyramine as substrate assessed as hydrogen peroxide production at 1 mM by fluorimetric method; settings: bti-tn-5b1-4, 1000 µM
IC50 [1] [nM],Ratio IC50 (Homo sapiens),IC50 [2] [nM],inhibition at 100 µM [3] [%],inhibition at 100 µM [4] [%],inhibition (INH) [5],IC50 ([1]; bti-tn-5b1-4) [nM],IC50 ([2]; bti-tn-5b1-4) [nM],Structure (SMILES)
6570,0.76,8630,–,–,–,–,–,Cc1sc(N/N=C/c2ccc3c(c2)OCO3)nc1-c1ccccc1
1960,0.9,2110,–,–,–,–,–,Cc1sc(NN=C2CCCCCC2)nc1-c1ccccc1
3050,0.9,3380,–,–,–,–,–,Cc1sc(N/N=C/c2cccs2)nc1-c1ccccc1
3060,1.72,1790,–,–,–,–,–,Cc1sc(N/N=C/c2ccco2)nc1-c1ccccc1
–,–,–,40,40,–,–,–,Cc1sc(N/N=C/c2cccc3ccccc23)nc1-c1ccccc1
280,0.043,6520,–,–,–,–,–,C/C(=N\Nc1nc(-c2ccccc2)c(C)s1)c1nccs1
6230,3.13,2000,–,–,–,–,–,C/C(=N\Nc1nc(-c2ccc3ccccc3c2)cs1)c1ccccc1
2320,1.25,1860,–,–,–,–,–,CCC(CC)=NNc1nc(-c2ccc3ccccc3c2)cs1
4780,1.16,4130,–,–,–,–,–,CCCC/C(CC)=N\Nc1nc(-c2ccccc2)c(C)s1
3020,0.33,9180,–,–,–,–,–,C/C(=N\Nc1nc(-c2ccccc2)c(C)s1)c1cc2ccccc2oc1=O
10800,5.56,1940,–,–,–,–,–,CC1CCC/C(=N\Nc2nc(-c3ccc4ccccc4c3)cs2)C1 (configuration not stated)
10800,1.67,6470,–,–,–,–,–,C/C(=N\Nc1nc(-c2ccc3ccccc3c2)cs1)c1cc2ccccc2oc1=O
1400,0.45,3120,–,–,–,–,–,Cc1sc(N/N=C/c2c[nH]c3ccccc23)nc1-c1ccccc1
–,–,–,–,–,Not Active,–,–,O=C(NCCN1CCOCC1)c1ccc(Cl)cc1 [MOCLOBEMIDE]
2880,0.76,3630,–,–,–,–,–,Cc1sc(N/N=C2\CCCC(C)C2)nc1-c1ccccc1 (configuration not stated)
3760,1.28,2930,–,–,–,–,–,CCCC/C(CC)=N\Nc1nc(-c2ccc3ccccc3c2)cs1
2100,1.25,1680,–,–,–,–,–,C/C(=N\Nc1nc(-c2ccccc2)c(C)s1)c1ccco1
6000,1.64,3690,–,–,–,–,–,CCCCC/C(C)=N\Nc1nc(-c2ccccc2)c(C)s1
2220,1.22,1830,–,–,–,–,–,Cc1sc(N/N=C/c2cccnc2)nc1-c1ccccc1
–,–,–,40,40,–,–,–,C/C(=N\Nc1nc(-c2ccccc2)c(C)s1)c1ccc2ccccc2c1

IC50 [1] [nM],Ratio IC50 (Homo sapiens),IC50 [2] [nM],inhibition at 100 µM [3] [%],inhibition at 100 µM [4] [%],inhibition (INH) [5],IC50 ([1]; bti-tn-5b1-4) [nM],IC50 ([2]; bti-tn-5b1-4) [nM],Structure (SMILES)
14500,3.85,3730,–,–,–,–,–,C/C(=N\Nc1nc(-c2ccc3ccccc3c2)cs1)c1cccs1
2880,1.11,2600,–,–,–,–,–,CC1CCC/C1=N\Nc1nc(-c2ccc3ccccc3c2)cs1 (configuration not stated)
5280,2.08,2550,–,–,–,–,–,CC(C)=NNc1nc(-c2ccccc2)c(C)s1
–,0.66,–,–,–,–,2520,3900,Cc1sc(NN=C2CCC(C)CC2)nc1-c1ccccc1 (configuration not stated)
8850,1.27,6970,–,–,–,–,–,C=CCC/C(C)=N\Nc1nc(-c2ccccc2)c(C)s1
2780,1.16,2400,–,–,–,–,–,C/C(CC(C)C)=N/Nc1nc(-c2ccccc2)c(C)s1
880,0.37,2390,–,–,–,–,–,C/C(=N\Nc1nc(-c2ccccc2)c(C)s1)c1ccccn1
3560,1.54,2310,–,–,–,–,–,C/C(CC(C)C)=N/Nc1nc(-c2ccc3ccccc3c2)cs1
1370,0.16,8290,–,–,–,–,–,Cc1sc(N/N=C/c2ccncc2)nc1-c1ccccc1
5990,2.56,2340,–,–,–,–,–,C(=N\Nc1nc(-c2ccc3ccccc3c2)cs1)/c1c[nH]c2ccccc12
2450,1.49,1650,–,–,–,–,–,CCC(CC)=NNc1nc(-c2ccccc2)c(C)s1
2310,0.32,7070,–,–,–,–,–,Cc1sc(NN=C2CCCCCCC2)nc1-c1ccccc1
2290,1.3,1770,–,–,–,–,–,C/C(=N\Nc1nc(-c2ccc3ccccc3c2)cs1)c1ccco1
–,> 14.3,6950,–,40,–,–,–,C/C(=N\Nc1nc(-c2ccc3ccccc3c2)cs1)C1CCCCC1
3490,1.82,1910,–,–,–,–,–,CC1CC/C(=N\Nc2nc(-c3ccc4ccccc4c3)cs2)C1 (configuration not stated)
2340,0.9,2670,–,–,–,–,–,C/C(=N\Nc1nc(-c2ccccc2)c(C)s1)c1cccs1
2310,0.9,2520,–,–,–,–,–,CCC/C(C)=N\Nc1nc(-c2ccccc2)c(C)s1
16000,6.67,2450,–,–,–,–,–,CCCCC/C(C)=N\Nc1nc(-c2ccc3ccccc3c2)cs1
2230,1,2240,–,–,–,–,–,C/C(=N\Nc1nc(-c2ccccc2)c(C)s1)c1ccccc1
3940,2.86,1370,–,–,–,–,–,C=CCC/C(C)=N\Nc1nc(-c2ccc3ccccc3c2)cs1

IC50 [1] [nM],Ratio IC50 (Homo sapiens),IC50 [2] [nM],inhibition at 100 µM [3] [%],inhibition at 100 µM [4] [%],inhibition (INH) [5],IC50 ([1]; bti-tn-5b1-4) [nM],IC50 ([2]; bti-tn-5b1-4) [nM],Structure (SMILES)
6140,0.83,7650,–,–,–,–,–,C/C(=N\Nc1nc(-c2ccccc2)c(C)s1)C1CCCCC1
3550,2.27,1560,–,–,–,–,–,CC(C)=NNc1nc(-c2ccc3ccccc3c2)cs1
1530,1,1550,–,–,–,–,–,CC/C(C)=N\Nc1nc(-c2ccccc2)c(C)s1
2310,1.01,2290,–,–,–,–,–,Cc1sc(N/N=C2\CCC(C)C2)nc1-c1ccccc1 (configuration not stated)
1790,1.01,1780,–,–,–,–,–,Cc1sc(NN=C2CCCCC2)nc1-c1ccccc1
–,–,–,40,40,–,–,–,C/C(=N\Nc1nc(-c2ccc3ccccc3c2)cs1)c1ccc2ccccc2c1
3110,1.72,1810,–,–,–,–,–,CCC/C(C)=N\Nc1nc(-c2ccc3ccccc3c2)cs1
4760,1.85,2570,–,–,–,–,–,C(=N\Nc1nc(-c2ccc3ccccc3c2)cs1)/c1cccnc1
7480,0.83,8670,–,–,–,–,–,C(=N\Nc1nc(-c2ccc3ccccc3c2)cs1)/c1ccncc1
–,> 16.7,5920,–,40,–,–,–,C(=N\Nc1nc(-c2ccc3ccccc3c2)cs1)/c1ccc2c(c1)OCO2
2650,1.52,1740,–,–,–,–,–,CC/C(C)=N\Nc1nc(-c2ccc3ccccc3c2)cs1
4630,1.72,2710,–,–,–,–,–,C(=N\Nc1nc(-c2ccc3ccccc3c2)cs1)/c1cccs1
22900,1.41,16400,–,–,–,–,–,C(=N\Nc1nc(-c2ccc3ccccc3c2)cs1)/c1cccc2ccccc12
3750,1.04,3910,–,–,–,–,–,CCCCCC/C(C)=N\Nc1nc(-c2ccccc2)c(C)s1
2760,1.35,2040,–,–,–,–,–,C(=N\Nc1nc(-c2ccc3ccccc3c2)cs1)/c1ccco1
1110,0.34,3230,–,–,–,–,–,Cc1sc(N/N=C2\CCCCC2C)nc1-c1ccccc1 (configuration not stated)
–,> 6.25,15800,–,40,–,–,–,CCCCCC/C(C)=N\Nc1nc(-c2ccc3ccccc3c2)cs1
1410,2.56,550,–,–,–,–,–,Cc1sc(NN=C2CCCC2)nc1-c1ccccc1
1330,0.56,2440,–,–,–,–,–,Cc1sc(N/N=C2\CCCC2C)nc1-c1ccccc1 (configuration not stated)
